Entries after “also recorded” stand apart in the source; their conditions may differ.
How the values were obtained:
[1] = system: claudin-1 overexpressed patient-derived xenograft; assay: Patient-derived xenograft (PDX) tumors; format: in vivo, nude mice; details: 5 mg/kg and 10 mg/kg
Procedure: Representative images of tumors from the vehicle and PDS-0330 (5 mg/kg and 10 mg/kg)-treated claudin-1 overexpressed PDX implanted nude mice.
Tumor volume was measured using calipers over time (n=5 mice per group). The formation of flank xenograft tumors in claudin-1 overexpressed PDX implanted nude mice was examined between vehicle and PDS-0330 (5 mg/kg and 10 mg/kg) treatment (n=5 mice per group). For graphs, data represent mean±SD; *, P<0.05; **, P<0.01; ***, P<0.001 & ****, P<0.0001.
Establishment of fresh patient derived xenograft (PDX) with tumors from the operating room. Human patient colon cancers were excised under standard sterile conditions. Initially, tumor fragments were implanted subcutaneously within 30 min of patient surgery over the right and left upper and lower flanks in nude mice. Subcutaneous tumors were allowed to grow for 2-4 weeks until large enough to supply adequate tumor for orthotopic implantation for PDOX models.

HCT116CLDN2 cells = assay: Cell viability, specificity for CLDN1; format: cell-based; details: cells overexpressing another tight junction protein
Procedure: (§1) SW480^claudin-1, IEC-6 (normal cells), and HCT116^CLDN2 cells were treated with different concentrations of PDS-0330 and cell viability was determined.
(§2) To this end, a library of molecules was synthesized in order to develop an initial SAR evaluation. The first compounds tested eliminated the acylated (thio) urea as well as the napthyl group and evaluated just the urea/phenyl compounds (Compounds 1-6). The methoxy group of the naphthalene ring system was needed when the benzimidazole group was present (16 vs. Compound 8). […] The result of metabolic stability was expressed as the percentage of drug remaining at each time. […] To further determine the effect of PDS-0330 on p-Src expression and association, cells were treated with Compound 1, 16 and PDS-0330. Expression and association with p-Src was unaffected with Compound 1 (negative control). The specificity of PDS-0330 for CLDN1 was further confirmed by treating SW480^CLDN1, HCT116^CLDN2 (overexpressing another tight junction protein) or normal IEC-6 cells with PDS-0330 (FIG. 12).

IEC-6 (normal cells) = assay: Cell viability, specificity for CLDN1; format: cell-based
Procedure: as §1, §2

SW480CLDN1 cells = assay: Cell viability, specificity for CLDN1; format: cell-based
Procedure: as §1, §2

[2] = Blood urea nitrogen (BUN) toxicity measurement; design: species or system mice; details: mouse, in vivo
Excerpt: Data are expressed as means±SEM (n=5 mice/group).

[3] = system: SW620 cells xenograft tumors; assay: SW620 xenograft tumors; format: in vivo, athymic mice
Procedure: SW620 cells were injected into dorsal flanks of athymic mice to form xenograft tumors. PDS-0330 was injected (5 and 10 mg/kg) when tumors became palpable. Effect on tumor volume and size was determined in time-dependent manner.
The development of flank xenograft tumors in claudin-1 overexpressed SW620 cells injected nude mice was examined between vehicle and PDS-0330 (5 mg/kg and 10 mg/kg) treatment (n=5 mice per group). Representative images of tumor containing mice from the vehicle and PDS-0330 (10 mg/kg).

[4] = system: p-Src and p-EphA2 in SW480claudin-1 cells; assay: Phosphorylation of Src and EphA2 versus dasatinib; format: cell-based
Procedure: Effects on (A) phosphorylation of Src and EphA2 and (B) cell survival (MTT assay) were determined.

SW480claudin-1 cells = assay: Cell survival (MTT assay) versus dasatinib; format: cell-based
Procedure: Effects on (A) phosphorylation of Src and EphA2 and (B) cell survival (MTT assay) were determined. Significant changes are boxed.

[5] = Metabolic stability in mouse liver S9 fractions; format: in vitro ADME
Procedure: To determine the in vivo characteristics of this drug, a pharmacokinetic and tissue distribution study on 16 was performed. Following a single i.v. dose of 16 (1 mg/kg) in mice (C57B/16; n=5), serial blood samples were obtained at 0.08, 0.25, 0.75, 2, 4, 6, 8 and 24 hours after the injection and plasma samples were analyzed for 16 concentrations. Pharmacokinetic parameter values were obtained from the plasma concentration-time data using standard non-compartmental methods (WinNonlin, PharSight Corp). […] To assess the tissue distribution of 16, mice were sacrificed at 2, 8 and 24 hours after the i.v. administration of the drug. Measurable concentrations of 16 were detected in all studied tissues at 2, 8, and 24 h. […] Next, metabolic stability studies of 16 was evaluated using mouse liver S9 fractions for the in vitro assessment of phase I and II metabolism. […] Testosterone, 7-HC and diclofenac were used as positive controls, ensuring proper incubation conditions were maintained. […]
Metabolic stability and reaction phenotyping: The in vitro metabolic stability of studies was determined using mice and human liver microsomes and S9 fractions (XenoTech, LLC, Lenexa, KS, USA) following standard protocols (33, 35, 36). […] Drug concentrations were determined using LC-MS/MS. […] UGTs are analyzed in Corning® Supersomes™ if incubation of HLMs with UDPGA also results in metabolite formation.

[6] = system: Claudin-1 deficient HCT116 cells; assay: Resistance to anoikis in claudin-1 deficient cells (negative control); format: cell-based
Excerpt: The crystal structure of claudin-1 is unknown. Therefore, an in-silico protein folding program, YASARA, was used to identify an effective claudin-1 inhibitor. The resultant 3D-structure was then modeled using Molegro Virtual Docker (MVD) software program. These in-silico analyses identified putative cavities in the claudin-1 protein that can be targeted by small molecule inhibitors. Next, a 100K library of small molecules was screened in silico using the MVD. The top 10 inhibitors that bound to the Site #3 (targeting near c-terminal domain; the most accessible pocket; FIG. 2A) with the best binding energies were selected as hits and used for further testing. Screening of these inhibitors named Inihibitor-1 (1-1) to Inhibitor-10 (I-10) was done using SW480claudin-1, SW620 and control cells. Claudin-1 deficient HCT116 cells (WT-APC) or SW620shRNAcld-1 were used as negative controls. Resistance to anoikis and cell invasion was used as biological end-points in testing these inhibitors. […]

Compound | tumor formation [1] | effect on cell viability (HCT116CLDN2 cells) | effect on cell viability (IEC-6 (normal cells)) | percentage of dead cells (SW480CLDN1 cells) | cytotoxic effect by blood urea nitrogen (BUN) [2] | tumor size ([3]; 5 and 10 mg/kg) | tumor weight ([3]; mouse, in vivo) | p-EphA2 and p-Src expression [4] | percent cell survival compared with dasatinib (SW480claudin-1 cells) | primary metabolites identified [5] | drug remaining ([5]; after 60 minutes, phase I and II metabolism) | effect on HCT116 cells [6]
O=C(NC(=S)Nc1ccc(-c2nc3ccccc3o2)cc1)c1ccc2ccccc2c1 [PDS-0330] | inhibits tumor formation | not affected | not affected | significant increase in the percentage of dead cells | no cytotoxic effect in mice | reduces tumor size in mice | significantly inhibited tumor weight | inhibited p-EphA2 expression along with p-Src; also recorded: more effective in inhibiting cell survival and p-EphA2 expression | significantly decreased percent cell survival more than dasatinib; also recorded: more effective in inhibiting cell survival | – | – | –
COc1cc2ccccc2cc1C(=O)NC(=S)Nc1ccc(-c2nc3ccccc3[nH]2)cc1 [Compound 16] | – | – | – | – | – | – | – | – | – | acetylation and hydroxylation with subsequent glucuronidation | 30% | remained unaffected

— patent US20250009716A1, “NOVEL INHIBITORS OF CLAUDIN-1 FOR THERAPEUTIC INTERVENTIONS” (BOARD OF REGENTS OF THE UNIVERSITY OF NEBRASKA, priority 2021, published 2025)
